Literature values in patent US12606590B2, “MRNA 5′-end cap analogs, RNA molecule incorporating the same, uses thereof and method of synthesizing RNA molecule or peptide” (Uniwersytet Warszawski, priority 2020, dated 2026).

Conditions: in vitro and in vivo; single atom substitution in β position of cap oligophosphate bridge

With `CO[C@@H]1[C@H](O)[C@@H](COP(=O)(O)OP(=O)([S-])OP(=O)(O)OC[C@H]2O[C@@H](n3cnc4c(=O)[nH]c(N)nc43)[C@H](O)[C@@H]2O)O[C@H]1n1c[n+](C)c2c(O)nc(N)nc21` (stereo partly drawn) [β-S-ARCA] as the compound, how does the mRNA translation efficiency read?
Its mRNA translation efficiency is “significant increase in mRNA translation efficiency”.
